Consider three molecules from patent US8921308B2, “Antimicrobial peptide, branched forms thereof and their use in the treatment of bacteria infections” (priority 2010, dated 2014).

Values after ≈ are worked out from the molar mass of the structure shown. Like-named read-outs stand apart in the source and are kept apart here.

In series [1] the test system is S. capitis ATCC 27840. In words: MIC, microdilution assay. The conditions noted are these: S. capitis ATCC 27840, reference strain. Type of series: cell-based. On the procedure: (§1) Minimum Inhibitory Concentration (MIC) was determined by a standard microdilution assay as recommended by the National Committee for Clinical Laboratory Standards (NCCLS) using cation-supplemented Mueller-Hinton (MH) broth (Oxoid Ltd. Basingstoke, UK) and a bacterial inoculum of 5×10^4 CFU per well, in a final volume of 100 μl. Results were recorded by visual inspection after 24 h of incubation at 37° C.
In general terms: In broth dilution the organism is exposed to a series of concentrations in liquid medium.

In series [2] the test system is S. epidermidis ATCC 14990. In words: MIC, microdilution assay. The note with it: S. epidermidis ATCC 14990, reference strain. It is filed as cell-based. How it is done:
as §1

In series [3] the test system is S. aureus ATCC 29213. The note with it: ATCC 29213, 24 h. On the procedure: as §1
For series [4], the system named is S. pneumoniae ATCC 49619. The note with it: ATCC 49619, 24 h. On the procedure:
as §1

In series [5] the test system is E. faecalis FI74B4 VSE. The note with it: 24 h. How it is done: as §1
In series [6] the test system is E. faecium FI81B1 VRE. The note with it: 24 h. On the procedure: as §1
Series [7] deals with S. pneumoniae 47D22. The conditions noted are these: 47D22, 24 h. On the procedure:
as §1

In series [8] the test system is S. epidermidis 6154. The conditions noted are these: 6154, 24 h. How it is done:
as §1

The subject of series [9] is Staphylococcus aureus 3851. The conditions noted are these: 3851, 24 h. How it is done:
as §1

The subject of series [10] is E. faecalis ATCC 29212. The note with it: ATCC 29212, 24 h. On the procedure: as §1
Series [11] has as its system S. agalactiae ATCC 13813. The conditions noted are these: ATCC 13813, 24 h. On the procedure: as §1
The test system of series [12] is E. faecium FI81B2 VSE. The note with it: 24 h. On the procedure:
as §1

The test system of series [13] is S. epidermidis 4761/1. The conditions noted are these: 4761/1, 24 h. How it is done: as §1
Series [14] deals with S. pneumoniae 47C12. The conditions noted are these: 47C12, 24 h. On the procedure:
as §1

Series [15] deals with human erythrocytes. In words: Haemolysis of human erythrocytes (method of Parpart). The conditions noted are these: for haemolytic activity (percentage of haemolysis): red cells of human. Type of series: cell-based. How it is done: Effect of tetra-branched L-M33, D-M33 and monomeric Indolicidin on haemolysis of human erythrocytes. The figures show the haemolytic activity of the three peptides on human erythrocytes evaluated by means of erythrocyte osmotic resistance of Parpart method in NaCl. The percentage of haemolysis is calculated by means of a calibration curve obtained by incubating erythrocytes with increasing concentrations of NaCl. […] The percentage of haemolysis of untreated blood after 19 hours (control) is very limited (<1%).
Haemolysis of fresh human erythrocytes was determined using the method of Parpart, summarized as follows. A calibration curve was constructed by suspending fresh human erythrocytes in phosphate buffer (pH 7.4, 110 mM sodium phosphate) with various concentrations of NaCl and incubated for 30 min at room temperature. Samples were centrifuged at 500×g for 5 minutes, and haemoglobin release was monitored by measuring the absorbance of supernatants at 540 nm. The absorbance obtained with 0.1% NaCl corresponded to 100% lysis and that with 1% NaCl, to 0% lysis. Peptides dissolved in PBS were added to human erythrocyte solution at several concentrations. The resulting suspension was incubated separately at 37° C. for 2 h and 24 h. Release of hemoglobin was monitored by measuring the absorbance of the suspernatant at 540 nm after centrifuging and haemolysis percentage was calculated using the calibration curve.

Series [16] deals with S. aureus USA 300. In words: In vivo antibacterial activity, lethal S. aureus infection in mice. The conditions noted are these: Balb-c mice, LD100 S. aureus ip; single dose 25 mg/Kg ip 1 hour later. How it is done: In vivo antibacterial activity of tetra-branched D-M33 peptide. Balb-c mice (20 g) were intra-peritoneally injected with a lethal amount of S. aureus USA 300 cells (5×10^6 CFU) mixed in a 7% mucin solution. Control line (Ctr) indicates mice only injected ip with bacteria and no D-M33. D-M33 line indicates mice injected ip with bacteria and a single injection of D-M33 peptide 25 mg/Kg 1 hour later. P<0.05.
(§2) Tetra-branched D-M33 peptide was analysed for its antibacterial activity in mice infected with lethal amounts of the Gram-negative bacterium E. coli or the Gram-positive bacterium S. aureus.
(§3) Balb-c mice were infected with the LD100 of bacteria and treated 1 hour later with the peptide by ip administration.

In series [17] the test system is C. tropicalis 6597. The note with it: 6597, 24 h.
The test system of series [18] is C. parapsilosis ATCC 90018. The note with it: ATCC 90018, 24 h.
Series [19] relates to E. coli ATCC 25922. It is filed as cell-based. The note with it: ATCC 25922, 24 h. On the procedure: (§4) Peptide MICs were determined against strains of several bacterial species, including Gram-negative and Gram-positive pathogens (Table 1 and 2). Activity of tetra-branched D-M33 was retained against MDR strains with various resistance mechanisms (such as extended-spectrum beta-lactamases and carbapenemases), including MDR P. aeruginosa strains from CF patients. The antimicrobial activity of tetra-branched D-M33 appeared slightly better with respect to tetra-branched L-M33 for MDR strains of Pseudomonas and one strain of Klebsiella and sensitively better respect to tetra-branched L-M33 for the two strains of Staphyloccoccus aureus reported in Table 1.

Series [20] deals with Acinotebacter baumannii RUH 134. Type of series: cell-based. The note with it: 24 h. How it is done:
as §4

Series [21] concerns Acinotebacter baumannii RUH 875. It is filed as cell-based. The note with it: 24 h. How it is done:
as §4

Series [22] relates to Klebsiella pneumoniae ATCC 13833. It is filed as cell-based. The conditions noted are these: ATCC 13833, 24 h. On the procedure: as §4
Series [23] concerns P. aeruginosa VenM rugosa 05/04/2005. It is filed as cell-based. The note with it: VenM rugosa 05/04/2005, 24 h. How it is done:
as §4

Series [24] relates to P. aeruginosa PAO-1. It is filed as cell-based. The conditions noted are these: PAO-1, 24 h. On the procedure:
as §4

Series [25] concerns C. krusei ATCC 6268. The note with it: ATCC 6268, 24 h.
The conditions of series [26]: animals treated ip, peptide dose 100 mg/Kg.
The test system of series [27] is C. albicans 9833. The conditions noted are these: 9833, 24 h.
Series [28] relates to E. coli TG1. In words: In vivo antibacterial activity, lethal E. coli infection in mice. The conditions noted are these: Balb-c mice, LD100 E. coli ip; single dose 10 mg/Kg ip 1 hour later. How it is done:
In vivo antibacterial activity of tetra-branched D-M33 peptide. Balb-c mice (20 g) were intra-peritoneally injected with a lethal amount of E. coli TG1 cells (1×10^9 CFU). Continuous line (Ctr) indicates mice only injected ip with bacteria and no D-M33. Broken line indicates mice injected ip with bacteria and a single injection of D-M33 peptide 10 mg/Kg 1 hour later.
as §2, §3

For series [29], the system named is C. glabrata ATCC 90030. The note with it: ATCC 90030, 24 h.
In series [30] the target is Aureolysin (Staphylococcus aureus, UniProt P81177). It is filed as in vitro ADME. The note with it: incubation with S. aureus Aureolysin, 1 hour / 24 hours. On the procedure: HPLC profiles of tetra-branched peptides L-M33 (A) and D-M33 (B) after incubation with the protease Aureolysin derived from S. aureus.
Aureolysin, sequence (P81177 209-509): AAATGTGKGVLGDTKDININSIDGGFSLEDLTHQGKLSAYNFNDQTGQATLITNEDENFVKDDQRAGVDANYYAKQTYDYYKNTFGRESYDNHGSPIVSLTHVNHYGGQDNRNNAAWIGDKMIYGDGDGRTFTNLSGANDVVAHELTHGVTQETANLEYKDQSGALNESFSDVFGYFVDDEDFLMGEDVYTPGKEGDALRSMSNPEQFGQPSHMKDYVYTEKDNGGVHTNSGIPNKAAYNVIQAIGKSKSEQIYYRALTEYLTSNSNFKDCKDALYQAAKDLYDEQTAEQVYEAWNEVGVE

One may read the MIC as the lowest concentration found to suppress growth. Turning to `CC[C@@H](C)[C@@H](NC(=O)[C@@H](CCCCN)NC(=O)[C@H](N)CCCCN)C(=O)N[C@H](CCCNC(=N)N)C(=O)N[C@@H](C(=O)N[C@H](CCCNC(=N)N)C(=O)N[C@H](CC(C)C)C(=O)N[C@H](CO)C(=O)N[C@H](C)C(=O)NCCCCC(NC(=O)[C@@H](C)NC(=O)[C@@H](CO)NC(=O)[C@@H](CC(C)C)NC(=O)[C@@H](CCCNC(=N)N)NC(=O)[C@H](NC(=O)[C@@H](CCCNC(=N)N)NC(=O)[C@H](NC(=O)[C@@H](CCCCN)NC(=O)[C@H](N)CCCCN)[C@H](C)CC)C(C)C)C(=O)NCCCCC(NC(=O)C(CCCCNC(=O)[C@@H](C)NC(=O)[C@@H](CO)NC(=O)[C@@H](CC(C)C)NC(=O)[C@@H](CCCNC(=N)N)NC(=O)[C@H](NC(=O)[C@@H](CCCNC(=N)N)NC(=O)[C@H](NC(=O)[C@@H](CCCCN)NC(=O)[C@H](N)CCCCN)[C@H](C)CC)C(C)C)NC(=O)[C@@H](C)NC(=O)[C@@H](CO)NC(=O)[C@@H](CC(C)C)NC(=O)[C@@H](CCCNC(=N)N)NC(=O)[C@H](NC(=O)[C@@H](CCCNC(=N)N)NC(=O)[C@H](NC(=O)[C@@H](CCCCN)NC(=O)[C@H](N)CCCCN)[C@H](C)CC)C(C)C)C(=O)NCCC(=O)O)C(C)C` (stereo partly drawn) [D-M33, KKIRVRLSA], the MIC in [1] was 0.35 µM (≈ 1.64 µg/mL); in [2], 0.35 µM (≈ 1.64 µg/mL); in [3], 3 µM (≈ 14 µg/mL); in [4], 6 µM (≈ 28.1 µg/mL); in series [5], 0.7 µM (≈ 3.28 µg/mL); in series [6], 0.7 µM (≈ 3.28 µg/mL). Further, the MIC turned out to be 6 µM (≈ 28.1 µg/mL) in series [7]; 0.35 µM (≈ 1.64 µg/mL) in series [8]; 0.7 µM (≈ 3.28 µg/mL) in series [9]; 0.7 µM (≈ 3.28 µg/mL) in [10]; 1.5 µM (≈ 7.02 µg/mL) in [11]; 0.7 µM (≈ 3.28 µg/mL) in series [12]. For the same molecule, the MIC was 0.35 µM (≈ 1.64 µg/mL) in series [13]; 12 µM (≈ 56.2 µg/mL) in [14]; 12 µM (≈ 56.2 µg/mL) in series [17]; 1.5 µM (≈ 7.02 µg/mL) in [18]; 1.5 µM (≈ 7.02 µg/mL) in series [19]; 3 µM (≈ 14 µg/mL) in [20]. The MIC amounted to 3 µM (≈ 14 µg/mL) in series [21]; 0.7 µM (≈ 3.28 µg/mL) in series [22]; 0.7 µM (≈ 3.28 µg/mL) in [23]; 0.7 µM (≈ 3.28 µg/mL) in series [24]; 6 µM (≈ 28.1 µg/mL) in series [25]; 24 µM (≈ 112 µg/mL) in series [27]. In [29], this molecule came in with an MIC of 12 µM (≈ 56.2 µg/mL). In addition, in [15], the “haemolysis, result in words” value is on record as “negligible haemolysis grade”. Moreover, in series [15], the “haemolytic activity (percentage of haemolysis)” value is recorded as less than 5%. Further, the “animals protected from signs of sepsis and death (seven-day survival)” value in [16] and in series [28] was 100% each time. For the same molecule, in series [26], the apparent toxicity signs entry is “did not produce apparent toxicity signs”.

Turning to `CC[C@H](C)[C@H](NC(=O)[C@H](CCCCN)NC(=O)[C@@H](N)CCCCN)C(=O)N[C@@H](CCCNC(=N)N)C(=O)N[C@H](C(=O)N[C@@H](CCCNC(=N)N)C(=O)N[C@@H](CC(C)C)C(=O)N[C@@H](CO)C(=O)N[C@@H](C)C(=O)NCCCC[C@H](NC(=O)[C@H](C)NC(=O)[C@H](CO)NC(=O)[C@H](CC(C)C)NC(=O)[C@H](CCCNC(=N)N)NC(=O)[C@@H](NC(=O)[C@H](CCCNC(=N)N)NC(=O)[C@@H](NC(=O)[C@H](CCCCN)NC(=O)[C@@H](N)CCCCN)[C@@H](C)CC)C(C)C)C(=O)NCCCC[C@H](NC(=O)[C@H](CCCCNC(=O)[C@H](C)NC(=O)[C@H](CO)NC(=O)[C@H](CC(C)C)NC(=O)[C@H](CCCNC(=N)N)NC(=O)[C@@H](NC(=O)[C@H](CCCNC(=N)N)NC(=O)[C@@H](NC(=O)[C@H](CCCCN)NC(=O)[C@@H](N)CCCCN)[C@@H](C)CC)C(C)C)NC(=O)[C@H](C)NC(=O)[C@H](CO)NC(=O)[C@H](CC(C)C)NC(=O)[C@H](CCCNC(=N)N)NC(=O)[C@@H](NC(=O)[C@H](CCCNC(=N)N)NC(=O)[C@@H](NC(=O)[C@H](CCCCN)NC(=O)[C@@H](N)CCCCN)[C@@H](C)CC)C(C)C)C(=O)NCCC(=O)O)C(C)C` [L-M33, KKIRVIRLSA, reference compound], the minimum inhibitory concentration (MIC) came out at 6 µM (≈ 28.1 µg/mL) in [9]; 1.5 µM (≈ 7.02 µg/mL) in [19]; 1.5 µM (≈ 7.02 µg/mL) in series [20]; 1.5 µM (≈ 7.02 µg/mL) in [21]; 1.5 µM (≈ 7.02 µg/mL) in series [22]; 3 µM (≈ 14 µg/mL) in series [23]. The MIC in series [24] amounted to 1.5 µM (≈ 7.02 µg/mL). Further, the “haemolytic activity (percentage of haemolysis)” value in series [15] is recorded as less than 5%. For the same molecule, in series [30], the “degradation by protease Aureolysin (HPLC profile)” value is on record as “degraded after only 1 hour of incubation”.

For Indolicidin [reference compound], the “haemolysis, result in words” value in series [15] (human erythrocytes (FIG. 2)) was “more haemolytic”.
